Source: ChEMBL document CHEMBL1136816, “Synthesis and evaluation of ether and halogenated derivatives of mannopeptimycin glycopeptide antibiotics” (2003)
Converted amounts (≈) assume the structure as drawn. Values belong to the molecule of their own block, whether it stands above or below them.

Tests used:
Assay type in all cases: functional
[1] = tested on: Enterococcus sp.; assay: In vitro minimum inhibitory concentration against Enterococcus species; 2-4
[2] = tested on: Streptococcus sp.; assay: In vitro minimum inhibitory concentration against Streptococcus species
[3] = tested on: Staphylococcus aureus; assay: In vitro minimum inhibitory concentration against Staphylococcus aureus; 1-2
[4] = tested on: Enterococcus sp.; assay: In vitro minimum inhibitory concentration against Enterococcus species; 0.5->64
[5] = tested on: Streptococcus sp.; assay: In vitro minimum inhibitory concentration against Streptococcus species; 0.12-0.5
[6] = tested on: Enterococcus sp.; assay: In vitro minimum inhibitory concentration against Enterococcus species; 4-32
[7] = tested on: Streptococcus sp.; assay: In vitro minimum inhibitory concentration against Streptococcus species; 0.5-2
[8] = tested on: Staphylococcus aureus; assay: In vitro minimum inhibitory concentration against Staphylococcus aureus
[9] = tested on: Enterococcus sp.; assay: In vitro minimum inhibitory concentration against Enterococcus species
[10] = tested on: Enterococcus sp.; assay: In vitro minimum inhibitory concentration against Enterococcus species; 4-16
[11] = tested on: Streptococcus sp.; assay: In vitro minimum inhibitory concentration against Streptococcus species; </=0.06-2
[12] = tested on: Staphylococcus aureus; assay: In vitro minimum inhibitory concentration against Staphylococcus aureus; 2-4
[13] = tested on: Enterococcus sp.; assay: In vitro minimum inhibitory concentration against Enterococcus species; 8-16
[14] = tested on: Staphylococcus aureus; assay: In vitro minimum inhibitory concentration against Staphylococcus aureus; 4-8
[15] = tested on: Enterococcus sp.; assay: In vitro minimum inhibitory concentration against Enterococcus species 2-8
[16] = tested on: Streptococcus sp.; assay: In vitro minimum inhibitory concentration against Streptococcus species; </=0.06-5

MIC [1]: 2 µg/mL (≈ 1.39 µM) | MIC [2]: ≤ 0.06 µg/mL | MIC [3]: 1 µg/mL (≈ 0.693 µM)
Compound: CCCOc1ccc(COC[C@H]2O[C@H](O[C@H]3[C@H](O)[C@H](O)[C@@H](Oc4ccc(C[C@H]5NC(=O)[C@H]([C@@H](C)c6ccccc6)NC(=O)CNC(=O)[C@H](CO)NC(=O)[C@@H]([C@@H](O)[C@@H]6CN=C(N)N6[C@H]6O[C@H](CO)[C@@H](O)[C@H](O)[C@@H]6O)NC(=O)[C@H]([C@@H](O)[C@@H]6CN=C(N)N6)NC5=O)cc4)O[C@@H]3CO)[C@@H](O)[C@@H](O)[C@@H]2O)cc1

Compound: CN[C@H](CC(C)C)C(=O)N[C@H]1C(=O)N[C@@H](CC(N)=O)C(=O)N[C@H]2C(=O)N[C@H]3C(=O)N[C@H](C(=O)N[C@H](C(=O)O)c4cc(O)cc(O)c4-c4cc3ccc4O)[C@H](O)c3ccc(c(Cl)c3)Oc3cc2cc(c3O[C@@H]2O[C@H](CO)[C@@H](O)[C@H](O)[C@H]2O[C@H]2C[C@](C)(N)[C@H](O)[C@H](C)O2)Oc2ccc(cc2Cl)[C@H]1O [VANCOMYCIN]
MIC [4]: 0.5 µg/mL (≈ 0.345 µM) | MIC [5]: 0.12 µg/mL (≈ 0.0828 µM)

MIC [6]: 4 µg/mL (≈ 2.83 µM) | MIC [7]: 0.5 µg/mL (≈ 0.353 µM) | MIC [8]: 4 µg/mL (≈ 2.83 µM)
Compound: COc1ccc(COC[C@H]2O[C@H](O[C@H]3[C@H](O)[C@H](O)[C@@H](Oc4ccc(C[C@H]5NC(=O)[C@H]([C@@H](C)c6ccccc6)NC(=O)CNC(=O)[C@H](CO)NC(=O)[C@@H]([C@@H](O)[C@@H]6CN=C(N)N6[C@H]6O[C@H](CO)[C@@H](O)[C@H](O)[C@@H]6O)NC(=O)[C@H]([C@@H](O)[C@@H]6CN=C(N)N6)NC5=O)cc4)O[C@@H]3CO)[C@@H](O)[C@@H](O)[C@@H]2O)cc1

MIC [9]: > 128 µg/mL | MIC [2]: > 128 µg/mL | MIC [8]: > 128 µg/mL
Compound: C[C@@H](c1ccccc1)[C@@H]1NC(=O)CNC(=O)[C@H](CO)NC(=O)[C@@H]([C@@H](O)[C@@H]2CN=C(N)N2[C@H]2O[C@H](CO)[C@@H](O)[C@H](O)[C@@H]2O)NC(=O)[C@H]([C@@H](O)[C@@H]2CN=C(N)N2)NC(=O)[C@@H](Cc2ccc(O[C@H]3O[C@H](CO)[C@@H](O[C@H]4O[C@H](CO)[C@@H](O)[C@H](O)[C@@H]4O)[C@H](O)[C@@H]3O)c(I)c2)NC1=O

MIC [10]: 4 µg/mL (≈ 2.63 µM) | MIC [11]: ≤ 0.06 µg/mL | MIC [12]: 2 µg/mL (≈ 1.31 µM)
Compound: COc1ccc(CO[C@H]2[C@H](O)[C@H](O)[C@@H](O[C@H]3[C@H](O)[C@H](O)[C@@H](Oc4ccc(C[C@H]5NC(=O)[C@H]([C@@H](C)c6ccccc6)NC(=O)CNC(=O)[C@H](CO)NC(=O)[C@@H]([C@@H](O)[C@@H]6CN=C(N)N6[C@H]6O[C@H](CO)[C@@H](O)[C@H](O)[C@@H]6O)NC(=O)[C@H]([C@@H](O)[C@@H]6CN=C(N)N6)NC5=O)cc4)O[C@@H]3CO)O[C@@H]2CO)cc1OCc1ccccc1

MIC [13]: 8 µg/mL (≈ 5.67 µM) | MIC [7]: 0.5 µg/mL (≈ 0.354 µM) | MIC [14]: 4 µg/mL (≈ 2.83 µM)
Compound: C[C@@H](c1ccccc1)[C@@H]1NC(=O)CNC(=O)[C@H](CO)NC(=O)[C@@H]([C@@H](O)[C@@H]2CN=C(N)N2[C@H]2O[C@H](CO)[C@@H](O)[C@H](O)[C@@H]2O)NC(=O)[C@H]([C@@H](O)[C@@H]2CN=C(N)N2)NC(=O)[C@@H](Cc2ccc(O[C@H]3O[C@H](CO)[C@@H](O[C@H]4O[C@H](COC/C=C/c5ccccc5)[C@@H](O)[C@H](O)[C@@H]4O)[C@H](O)[C@@H]3O)cc2)NC1=O

MIC [1]: 2 µg/mL (≈ 1.34 µM) | MIC [2]: ≤ 0.06 µg/mL | MIC [12]: 2 µg/mL (≈ 1.34 µM)
Compound: C[C@@H](c1ccccc1)[C@@H]1NC(=O)CNC(=O)[C@H](CO)NC(=O)[C@@H]([C@@H](O)[C@@H]2CN=C(N)N2[C@H]2O[C@H](CO)[C@@H](O)[C@H](O)[C@@H]2O)NC(=O)[C@H]([C@@H](O)[C@@H]2CN=C(N)N2)NC(=O)[C@@H](Cc2ccc(O[C@H]3O[C@H](CO)[C@@H](O[C@H]4O[C@H](CO)[C@@H](OCC=C(c5ccccc5)c5ccccc5)[C@H](O)[C@@H]4O)[C@H](O)[C@@H]3O)cc2)NC1=O

MIC [15]: 2 µg/mL (≈ 1.36 µM) | MIC [16]: ≤ 0.06 µg/mL | MIC [3]: 1 µg/mL (≈ 0.682 µM)
Compound: COc1ccc2cc(COC[C@H]3O[C@H](O[C@H]4[C@H](O)[C@H](O)[C@@H](Oc5ccc(C[C@H]6NC(=O)[C@H]([C@@H](C)c7ccccc7)NC(=O)CNC(=O)[C@H](CO)NC(=O)C(C(O)[C@@H]7CN=C(N)N7[C@H]7O[C@H](CO)[C@@H](O)[C@H](O)[C@@H]7O)NC(=O)[C@H]([C@@H](O)[C@@H]7CN=C(N)N7)NC6=O)cc5)O[C@@H]4CO)[C@@H](O)[C@@H](O)[C@@H]3O)ccc2c1 (stereo partly specified)

MIC [1]: 2 µg/mL (≈ 1.34 µM) | MIC [2]: ≤ 0.06 µg/mL | MIC [8]: 2 µg/mL (≈ 1.34 µM)
Compound: C[C@@H](c1ccccc1)[C@@H]1NC(=O)CNC(=O)[C@H](CO)NC(=O)[C@@H]([C@@H](O)[C@@H]2CN=C(N)N2[C@H]2O[C@H](CO)[C@@H](O)[C@H](O)[C@@H]2O)NC(=O)[C@H]([C@@H](O)[C@@H]2CN=C(N)N2)NC(=O)[C@@H](Cc2ccc(O[C@H]3O[C@H](CO)[C@@H](O[C@H]4O[C@H](COCC=C(c5ccccc5)c5ccccc5)[C@@H](O)[C@H](O)[C@@H]4O)[C@H](O)[C@@H]3O)cc2)NC1=O
